By IC50 is commonly meant the concentration needed to halve the response being measured.

Some results are limits rather than exact numbers.

This experiment deals with T1, LRRK2 wild type (recombinant human, catalytic domain amino acids 970-2527, GST-tagged) (Homo sapiens, UniProt Q5S007).
T1 construct: The wild type used was recombinant human, catalytic domain (amino acids 970-2527) GST-tagged, expressed in insect cells; GST; purchased Invitrogen Corporation PV4873; host or cells: insect cells
T1 sequence (Q5S007 970-2527): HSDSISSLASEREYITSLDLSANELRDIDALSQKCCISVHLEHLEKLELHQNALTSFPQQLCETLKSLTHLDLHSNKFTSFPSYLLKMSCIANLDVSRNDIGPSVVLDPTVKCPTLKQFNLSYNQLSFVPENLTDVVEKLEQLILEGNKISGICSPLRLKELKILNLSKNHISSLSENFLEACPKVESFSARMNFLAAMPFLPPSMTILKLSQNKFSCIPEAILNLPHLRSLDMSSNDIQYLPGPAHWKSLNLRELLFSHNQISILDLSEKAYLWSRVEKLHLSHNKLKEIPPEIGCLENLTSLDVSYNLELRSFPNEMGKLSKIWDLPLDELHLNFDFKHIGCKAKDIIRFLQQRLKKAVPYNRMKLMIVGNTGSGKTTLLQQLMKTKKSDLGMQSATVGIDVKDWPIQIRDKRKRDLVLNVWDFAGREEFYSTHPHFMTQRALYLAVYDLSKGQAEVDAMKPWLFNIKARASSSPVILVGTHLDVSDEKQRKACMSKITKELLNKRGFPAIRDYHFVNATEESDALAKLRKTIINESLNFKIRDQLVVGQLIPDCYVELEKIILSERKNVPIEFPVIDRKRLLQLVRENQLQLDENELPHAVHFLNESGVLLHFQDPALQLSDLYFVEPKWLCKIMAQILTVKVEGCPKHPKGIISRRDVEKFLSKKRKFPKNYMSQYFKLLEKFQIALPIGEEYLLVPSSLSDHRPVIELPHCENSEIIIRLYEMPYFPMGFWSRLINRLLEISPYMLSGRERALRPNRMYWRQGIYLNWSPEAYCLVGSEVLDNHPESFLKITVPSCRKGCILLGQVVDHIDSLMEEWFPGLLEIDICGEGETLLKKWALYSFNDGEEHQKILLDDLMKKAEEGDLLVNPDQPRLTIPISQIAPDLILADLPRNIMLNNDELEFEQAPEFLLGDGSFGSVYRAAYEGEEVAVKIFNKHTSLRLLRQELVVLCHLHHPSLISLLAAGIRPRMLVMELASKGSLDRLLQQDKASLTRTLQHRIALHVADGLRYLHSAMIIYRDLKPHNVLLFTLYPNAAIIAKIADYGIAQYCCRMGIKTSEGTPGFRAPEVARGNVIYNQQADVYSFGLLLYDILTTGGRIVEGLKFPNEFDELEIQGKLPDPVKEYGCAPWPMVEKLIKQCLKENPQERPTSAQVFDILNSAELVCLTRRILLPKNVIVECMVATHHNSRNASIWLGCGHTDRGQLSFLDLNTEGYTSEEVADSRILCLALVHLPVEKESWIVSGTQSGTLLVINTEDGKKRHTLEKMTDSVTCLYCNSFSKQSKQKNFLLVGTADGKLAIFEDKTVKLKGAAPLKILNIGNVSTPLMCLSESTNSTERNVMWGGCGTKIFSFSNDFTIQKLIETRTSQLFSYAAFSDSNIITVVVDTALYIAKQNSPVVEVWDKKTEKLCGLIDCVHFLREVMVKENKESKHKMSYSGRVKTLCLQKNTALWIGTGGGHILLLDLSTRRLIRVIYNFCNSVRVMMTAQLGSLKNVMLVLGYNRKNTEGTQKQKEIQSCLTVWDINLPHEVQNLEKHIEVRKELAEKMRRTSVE
In words: LRRK2 wild type protein kinase assay ([γ-33P] ATP, peptide substrate […]), IC50. It is filed as biochemical. Particulars: LRRK2 (variant not given); read-out: Potency score, LRRK2 IC50. The text has this:
All LRRK2 protein kinases were of human origin and were sourced from Invitrogen Corporation (Carlsbad, Calif. 92008 USA) unless otherwise indicated. The active mutant used was recombinant human, catalytic domain (amino acids 970-2527) containing a G2019S mutation, GST-tagged, expressed in insect cells (Invitrogen Cat#PV4881). The wild type used was recombinant human, catalytic domain (amino acids 970-2527) GST-tagged, expressed in insect cells (Invitrogen Cat#PV4873). The kinase dead mutant used was recombinant human, catalytic domain (amino acids 970-2527) containing a D1994A mutation, GST-tagged, expressed in insect cells (Invitrogen Cat#PM4041AE). No special measures were taken to activate any of the kinases.
All assays were carried out at room temperature (˜21° C.) and were linear with respect to time and enzyme concentration under the conditions used. Assays were performed for 180 min in a 96 well format. LRRK2 was present at a concentration of approximately 5 nM. The enzyme was diluted and assayed in 50 mM Tris-HCl pH7.5, 0.1 mM EGTA, 1 mM DTT and 10 mM MgCl2. The concentration of magnesium chloride in the assay was 10 mM. The [γ-33P] […] The peptide substrate in the assay was […] at 100 μM.
The assays were initiated with Mg/ATP and stopped by the addition of 25 μl/well 50% orthophosphoric acid. Reactions were harvested onto Whatman P81 Unifilter Plates (Fisher Scientific. Loughborough, LE115RG, UK. Cat# FDU-105-020U) using a Tomtec harvester. (Tomtec Hamden, Conn. 06514. USA) Plates were counted using a Perkin Elmer Top Count NX7. (Perkin Elmer, Shelton Conn. 06484-4794 USA)
IC50 values of inhibitors were determined after carrying out assays at 10 different concentrations of each compound in duplicate.
As for `CC(=O)Nc1cccc(NC(=O)c2ccc(CCc3n[nH]c4ccnc(NC5CCCCC5)c34)cc2)c1` [Example 255, N-(3-Acetylamino-phenyl)-4-[2-(4-cyclohexylamino-1H-pyrazolo[4,3-c]pyridin-3-yl)-ethyl]-benzamide], the IC50 is below 0.1 µM.

As for `CNC(=O)c1ccc(-c2n[nH]c3ccnc(NC4CCCCC4)c23)cc1` [Example 139, 4-(4-Cyclohexylamino-1H-pyrazolo[4,3-c]pyridin-3-yl)-N-methyl-benzamide], the IC50 lay in the range of 1 to 10 µM. The same measure for `Cc1n[nH]c2ccnc(Nc3ccc(S(C)(=O)=O)cc3)c12` [Example 322, (4-Methanesulfonyl-phenyl)-(3-methyl-1H-pyrazolo[4,3-c]pyridin-4-yl)-amine]: 1 to 10 µM; for `Cc1n[nH]c2ccnc(-c3ncco3)c12` [Example 129, 3-Methyl-4-oxazol-2-yl-1H-pyrazolo[4,3-c]pyridine]: 1 to 10 µM. For the compound `Cc1n[nH]c2ccnc(Nc3cccc(OC(C)C)c3)c12` [Example 341, (3-Isopropoxy-phenyl)-(3-methyl-1H-pyrazolo[4,3-c]pyridin-4-yl)-amine], the IC50 was 1 to 10 µM.

Turning to `Cc1ccc(Nc2nccc3[nH]nc(C)c23)cn1` [Example 344, (3-Methyl-1H-pyrazolo[4,3-c]pyridin-4-yl)-(6-methyl-pyridin-3-yl)-amine], the IC50 fell in the range of 1 to 10 µM. The same measure for `Cc1n[nH]c2ccnc(NCCNc3ccccc3)c12` [Example 337, N-(3-Methyl-1H-pyrazolo[4,3-c]pyridin-4-yl)-N′-phenyl-ethane-1,2-diamine]: 1 to 10 µM; for `O=C(CCc1n[nH]c2ccnc(NC3CCCCC3)c12)N1CCCCC1c1cccnc1` (stereo not drawn) [Example 208, 3-(4-Cyclohexylamino-1H-pyrazolo[4,3-c]pyridin-3-yl)-1-(3,4,5,6-tetrahydro-2H-[2,3′]bipyridinyl-1-yl)-propan-1-one]: below 0.1 µM; for `Cc1n[nH]c2ccnc(Nc3ccc(C#N)cc3)c12` [Example 348, 4-(3-Methyl-1H-pyrazolo[4,3-c]pyridin-4-ylamino)-benzonitrile]: 1 to 10 µM.

For `CC(=O)Nc1ccc(Nc2nccc3[nH]nc(C)c23)cc1` [Example 79, N-[4-(3-Methyl-1H-pyrazolo[4,3-c]pyridin-4-ylamino)-phenyl]-acetamide], the half-maximal inhibitory concentration (IC50) is 0.1 to 1 µM. The same measure for `COc1cccc(-c2n[nH]c3ccnc(NC4CCCCC4)c23)c1` [Example 146, Cyclohexyl-[3-(3-methoxy-phenyl)-1H-pyrazolo[4,3-c]pyridin-4-yl]-amine]: 0.1 to 1 µM; for `CC(=O)N1CCC(CCc2n[nH]c3ccnc(NC4CCCCC4)c23)CC1` [Example 219, 1-{4-[2-(4-Cyclohexylamino-1H-pyrazolo[4,3-c]pyridin-3-yl)-ethyl]-piperidin-1-yl}-ethanone]: 1 to 10 µM; for `Cc1n[nH]c2ccnc(Nc3ccc(Cl)cc3Cl)c12` [Example 306, (2,4-Dichloro-phenyl)-(3-methyl-1H-pyrazolo[4,3-c]pyridin-4-yl)-amine]: 0.1 to 1 µM. The same measure for `COc1ccc(-c2n[nH]c3ccnc(NC4CCCCC4)c23)cn1` [Example 142, Cyclohexyl-[3-(6-methoxy-pyridin-3-yl)-1H-pyrazolo[4,3-c]pyridin-4-yl]-amine]: 1 to 10 µM. As to `Cc1n[nH]c2ccnc(NC3CCCN(C)C3)c12` (stereo not drawn) [Example 31, (1-Methyl-piperidin-3-yl)-(3-methyl-1H-pyrazolo[4,3-c]pyridin-4-yl)-amine], the IC50 lay in the range of 1 to 10 µM.

As for `O=C(CCc1n[nH]c2ccnc(NC3CCCCC3)c12)N1CCC(F)(F)CC1` [Example 168, 3-(4-Cyclohexylamino-1H-pyrazolo[4,3-c]pyridin-3-yl)-1-(4,4-difluoro-piperidin-1-yl)-propan-1-one], the IC50 lay in the range of 0.1 to 1 µM. On to `Clc1cccc(-c2n[nH]c3ccnc(NC4CCCCC4)c23)c1` [Example 144, [3-(3-Chloro-phenyl)-1H-pyrazolo[4,3-c]pyridin-4-yl]-cyclohexyl-amine], for which the IC50 was in the range of 0.1 to 1 µM. `O=C(CCc1n[nH]c2ccnc(NC3CCCCC3)c12)N1CCN(Cc2ccc(F)cc2F)CC1` [Example 179, 3-(4-Cyclohexylamino-1H-pyrazolo[4,3-c]pyridin-3-yl)-1-[4-(2,4-difluoro-benzyl)-piperazin-1-yl]-propan-1-one]: the IC50 lay in the range of 0.1 to 1 µM.

In the case of `O=C(Nc1cccc(CCc2n[nH]c3ccnc(NC4CCCCC4)c23)c1)c1cccc(Cl)c1` [Example 226, 3-Chloro-N-{3-[2-(4-cyclohexylamino-1H-pyrazolo[4,3-c]pyridin-3-yl)-ethyl]-phenyl}-benzamide], the IC50 is below 0.1 µM. The same measure for `CC(=O)Nc1ccc(CCc2n[nH]c3ccnc(NC4CCCCC4)c23)cc1` [Example 262, N-{4-[2-(4-Cyclohexylamino-1H-pyrazolo[4,3-c]pyridin-3-yl)-ethyl]-phenyl}-acetamide]: below 0.1 µM; for `CC(C)CN(C)C(=O)CCc1n[nH]c2ccnc(NC3CCCCC3)c12` [Example 182, 3-(4-Cyclohexylamino-1H-pyrazolo[4,3-c]pyridin-3-yl)-N-isobutyl-N-methyl-propionamide]: 0.1 to 1 µM; for `Cc1n[nH]c2ccnc(NC3CCCCCC3)c12` [Example 33, Cycloheptyl-(3-methyl-1H-pyrazolo[4,3-c]pyridin-4-yl)-amine]: 0.1 to 1 µM.

As to `Cc1n[nH]c2ccnc(NCCc3ccccc3)c12` [Example 335], the IC50 lay within 0.1 to 1 µM.

With `Cc1n[nH]c2ccnc(OC3CCCC3(C)C)c12` (stereo not drawn) [Example 289, 4-(2,2-Dimethyl-cyclopentyloxy)-3-methyl-1H-pyrazolo[4,3-c]pyridine], the IC50 was in the range of 0.1 to 1 µM. The same measure for `Cc1n[nH]c2ccnc(Nc3ccccc3Cl)c12` [Example 309, (2-Chloro-phenyl)-(3-methyl-1H-pyrazolo[4,3-c]pyridin-4-yl)-amine]: 0.1 to 1 µM; for `Cc1n[nH]c2ccnc(Nc3ccc(N4CCCC4=O)cc3)c12` [Example 89, 1-[4-(3-Methyl-1H-pyrazolo[4,3-c]pyridin-4-ylamino)-phenyl]-pyrrolidin-2-one]: 0.1 to 1 µM.

For `Cc1n[nH]c2ccnc(OC(C)C)c12` [Example 277, 4-isopropoxy-3-methyl-1H-pyrazolo[4,3-c]pyridine], the half-maximal inhibitory concentration (IC50) is below 0.1 µM. As for `Cc1n[nH]c2ccnc(NCCc3ccccn3)c12` [Example 2, (3-Methyl-1H-pyrazolo[4,3-c]pyridin-4-yl)-(2-pyridin-2-yl-ethyl)-amine], the figure is 1 to 10 µM; as for `Cc1n[nH]c2ccnc(Nc3cccc(-c4nnco4)c3)c12` [Example 353], 1 to 10 µM. For the compound `c1ccc(Cn2cc(-c3n[nH]c4ccnc(NC5CCCCC5)c34)cn2)nc1` [Example 234, Cyclohexyl-[3-(1-pyridin-2-ylmethyl-1H-pyrazol-4-yl)-1H-pyrazolo[4,3-c]pyridin-4-yl]-amine], the half-maximal inhibitory concentration (IC50) fell in the range of 0.1 to 1 µM. For `Cc1n[nH]c2ccnc(NCc3ccco3)c12` [Example 303, Furan-2-ylmethyl-(3-methyl-1H-pyrazolo[4,3-c]pyridin-4-yl)-amine], the concentration for half-maximal inhibition (IC50) was in the range of 1 to 10 µM.

As to `CCOc1ccc(Nc2nccc3[nH]nc(C)c23)cc1` [Example 72, (4-Ethoxy-phenyl)-(3-methyl-1H-pyrazolo[4,3-c]pyridin-4-yl)-amine], the half-maximal inhibitory concentration (IC50) fell in the range of 0.1 to 1 µM. As for `Cn1ncnc1C1CCCN(C(=O)CCc2n[nH]c3ccnc(NC4CCCCC4)c23)C1` (stereo not drawn) [Example 239, 3-(4-Cyclohexylamino-1H-pyrazolo[4,3-c]pyridin-3-yl)-1-[3-(2-methyl-2H-1,2,4-triazol-3-yl)-piperidin-1-yl]-propan-1-one], the figure is 0.1 to 1 µM. In the case of `Cc1n[nH]c2ccnc(N[C@@H](C)C3CC3)c12` [Example 42, ((S)-1-Cyclopropyl-ethyl)-(3-methyl-1H-pyrazolo[4,3-c]pyridin-4-yl)-amine], the half-inhibitory concentration (IC50) lay within 0.1 to 1 µM.

For `Cc1n[nH]c2ccnc(-c3ccc(F)cc3)c12` [Example 50, 4-(4-Fluoro-phenyl)-3-methyl-1H-pyrazolo[4,3-c]pyridine], the IC50 fell in the range of 1 to 10 µM. Regarding `Cc1n[nH]c2ccnc(NC3CCN(C)CC3)c12` [Example 13, (1-Methyl-piperidin-4-yl)-(3-methyl-1H-pyrazolo[4,3-c]pyridin-4-yl)-amine], the IC50 fell in the range of 0.1 to 1 µM. Turning to `CC(C)CN(C)C(=O)c1ccc(CCc2n[nH]c3ccnc(NC4CCCCC4)c23)cc1` [Example 249, 4-[2-(4-Cyclohexylamino-1H-pyrazolo[4,3-c]pyridin-3-yl)-ethyl]-N-isobutyl-N-methyl-benzamide], the IC50 was below 0.1 µM. For `Cc1n[nH]c2ccnc(-c3nccs3)c12` [Example 130, 3-Methyl-4-thiazol-2-yl-1H-pyrazolo[4,3-c]pyridine], the IC50 is 0.1 to 1 µM. Regarding `Cc1cccc(-c2n[nH]c3ccnc(NC4CCCCC4)c23)c1` [Example 149, Cyclohexyl-(3-m-tolyl-1H-pyrazolo[4,3-c]pyridin-4-yl)-amine], the IC50 lay within 0.1 to 1 µM.

(Values after US20170320870A1 (Medical Research Council Technology, priority 2009, published 2017).)
